In patent US10442804B2, “Compounds for the treatment of hepatitis B virus infection” (Gilead Sciences, Inc., priority 2017, dated 2019) one finds EC50 and CC50 data, which are given here for 20 compounds.

Read-outs that look alike come from different tables or passages of the source.

The test system of data set [1] is HBV-infected NTCP-HepG2 cells, secreted HBsAg. Nature of the data set: microbe, parasite or virus in culture. The class given is cell-based, hepatitis B virus (genotype D, AD38-derived). The settings on record: Hepatitis B virus, 120 h, secreted HBsAg in supernatant after 5 days; geometric mean of minimum four determinations; read-out: NTCP HBsAg EC50. As to the method:
NTCP-HepG2 Antiviral Assay for Secreted HBsAg
HepG2 cells stably expressing sodium-taurocholate cotransporting polypeptide (NTCP-HepG2) were grown in Dulbecco's Modified Eagle Medium (DMEM) without sodium pyruvate (Thermo Fisher Scientific, Waltham, Mass.) supplemented with 10% fetal bovine serum, 2 mM L-glutamine, 1% penicillin/streptomycin, and 0.25 mg/mL G-418. NTCP-HepG2 cells were infected with 4000 genome equivalent per cell of genotype D (AD38-derived) HBV in DMEM without sodium pyruvate (Thermo Fisher Scientific, Waltham, Mass.) supplemented with 2% fetal bovine serum, 2 mM L-glutamine, 1% penicillin/streptomycin, 2.5% DMSO, and 4% PEG 8000 (Promega, Madison, Wis.). After 24-hour incubation, cells were washed three times with OptiMEM (Thermo Fisher Scientific, Waltham, Mass.) and fed with fresh DMEM without sodium pyruvate (Thermo Fisher Scientific, Waltham, Mass.) supplemented with 2% fetal bovine serum, 2 mM L-glutamine, 1% penicillin/streptomycin, and 2.5% DMSO. At 4 days after infection, infected NTCP-HepG2 cells were seeded on 384-well plates pre-coated with collagen at a density of 20000 cells per well containing serially diluted compounds of the present disclosure or DMSO (0.5%) in a final volume of 80 μl of DMEM without sodium pyruvate (Thermo Fisher Scientific, Waltham, Mass.) supplemented with 2% fetal bovine serum, 2 mM L-glutamine, 1% penicillin/streptomycin, and 1% DMSO. After an incubation time of 5 days, cell culture supernatant was collected and measured for HBsAg.
Secreted HBsAg in the supernatant were measured using a multiplex chemiluminescent MSD assay (Meso Scale Discovery, Rockville, Md.) using capture and detection antibody pairs specific for HBsAg. The EC50 values were calculated from the fit of the dose-response curves to a four-parameter equation. All EC50 values represent geometric mean values of a minimum of four determinations.

A short description of a further data set: MT-4 cytotoxicity assay. The settings on record: human. The class given is cell-based, human. As to the method: Biological Example 2: MT-4 Cytotoxicity Assay
The MT-4 cell line (HTLV-1 transformed, human T lymphoblastoid cells) was obtained from the NIH AIDS Reagent program (Bethesda, Md.). MT-4 cells were maintained in RPMI-1640 media (Thermo Fisher Scientific, Waltham, Mass.) supplemented with 10% fetal bovine serum, 100 Units/mL penicillin, and 100 μg/mL streptomycin. For the MT-4 cytotoxicity assay, 0.4 μL of serially diluted solutions of certain compounds disclosed herein were added to 40 μL of cell maintenance media in 384-well black, solid bottom plate using a Biomek FX workstation (Beckman Coulter, Brea, Calif.). Two thousand cells in 35 μL were added to each well using a Biotek uFlow Workstation (Biotek, Winooski, Vt.). Each assay plate contained 10 μM puromycin (final concentration) and 0.5% DMSO in RPMI-1640 media as positive and negative controls, respectively. Assay plates were incubated for five days at 37° C. in an incubator set at 5% CO2 and 90% humidity. After five days, 22 μL of Cell Titer Glo reagent (Promega, Madison, Wis.) was added to the assay plates with a Biotek uFlow Workstation. Plates were subsequently placed on an Envision Plate Reader (Perkin Elmer, Waltham, Mass.) for five minutes before the luminescence signal was read. CC50 values were defined as the compound concentration that caused a 50% decrease in luminescence signal, and were calculated by non-linear regression using Pipeline Pilot software by applying a four parameter fit equation (Accelrys, San Diego, Calif.) and are reported in the following Table 1.

[2] abbreviates: five days, Cell Titer Glo luminescence, read-out: MT-4 CC50.

With `CCOc1cc2c(cc1OCCCOC)[C@H]1CCC(C)(C)N1n1cc(C(=O)O)c(=O)cc1-2` [Example 21, (R)-11-ethoxy-12-(3-methoxypropoxy)-3,3-dimethyl-8-oxo-2,3,8,13b-tetrahydro-1H-pyrido[2,1-a]pyrrolo[1,2-c]phthalazine-7-carboxylic acid], in data set [1], the EC50 (as a rule, the concentration giving half of the maximal effect) came out at 7.5 nM. In addition, in “MT-4 cytotoxicity assay” (setting [2]), the CC50 (in general, the concentration at which the toxic effect on the cells reaches its halfway point) at 5 days is above 10000 nM.
Turning to `COCCCOc1cc2c(cc1COC)-c1cc(=O)c(C(=O)O)cn1N1[C@@H]2CCC12CCC2` [Compound 110, (R)-11′-(methoxymethyl)-12′-(3-methoxypropoxy)-8′-oxo-1′,2′,8′,13b′-tetrahydrospiro[cyclobutane-1,3′-pyrido[2,1-a]pyrrolo[1,2-c]phthalazine]-7′-carboxylic acid], the EC50 in data set [1] came out at 3.9 nM. Also, the CC50 at 5 days in the data set “MT-4 cytotoxicity assay” (MT-4 CC50) is above 10000 nM.
Consider `COCCCOc1cc2c(cc1Cl)-c1cc(=O)c(C(=O)O)cn1N1CCC(C)(C)[C@H]21` (single isomer, unassigned) [Example 47], for which the EC50 in data set [1] is 16 nM. For the same compound, the CC50 at 5 days in “MT-4 cytotoxicity assay” (setting [2]) is 1700 nM.
In the case of `COCCCOc1cc2c(cc1Cl)-c1cc(=O)c(C(=O)O)cn1N1[C@@H](C)CC[C@@H]21` (single isomer, unassigned) [Example 8], the EC50 in data set [1] was 200 nM. Also, the CC50 at 5 days in “MT-4 cytotoxicity assay” (setting [2]) is above 10000 nM.
For the compound `COc1cc2c(cc1-c1cnn(C(F)F)c1)[C@H]1CCC(C)(C)N1n1cc(C(=O)O)c(=O)cc1-2` [Example 44, (R)-12-(1-(Difluoromethyl)-1H-pyrazol-4-yl)-11-methoxy-3,3-dimethyl-8-oxo-2,3,8,13b-tetrahydro-1H-pyrido[2,1-a]pyrrolo[1,2-c]phthalazine-7-carboxylic acid], the EC50 in data set [1] was 5.5 nM. Further, the CC50 at 5 days in the data set “MT-4 cytotoxicity assay” (setting [2]) is 3000 nM.
Take `COCCCOc1cc2c(cc1OCC(F)F)-c1cc(=O)c(C(=O)O)cn1N1[C@@H]2CCC1(C)C` [Example 27, (R)-11-(2,2-difluoroethoxy)-12-(3-methoxypropoxy)-3,3-dimethyl-8-oxo-2,3,8,13b-tetrahydro-1H-pyrido[2,1-a]pyrrolo[1,2-c]phthalazine-7-carboxylic acid]: the EC50 in data set [1] was 3.7 nM. For the same compound, the CC50 at 5 days in “MT-4 cytotoxicity assay” (setting [2]) is above 10000 nM.
On to `COCCCOc1cc2c(cc1Cl)-c1cc(=O)c(C(=O)O)cn1N1CC(C)(C)CCC21` (stereo not shown) [Example 17, 13-chloro-12-(3-methoxypropoxy)-8,8-dimethyl-2-oxo-2,7,8,9,10,10a-hexahydrodipyrido[2,1-a:1′,2′-c]phthalazine-3-carboxylic acid], for which, in data set [1], the EC50 was 110 nM. The CC50 at 5 days in “MT-4 cytotoxicity assay” (setting [2]) is above 10000 nM.
In the case of `COc1cc2c(cc1OCC1CC(=O)C1)[C@H]1CCC(C)(C)N1n1cc(C(=O)O)c(=O)cc1-2` [Example 37], in data set [1], the EC50 amounted to 4 nM. In addition, in the data set “MT-4 cytotoxicity assay” (setting [2]), the CC50 at 5 days is above 10000 nM.
Turning to `COCc1cc2c(cc1OCCn1nc3ccccn3c1=O)[C@H]1CCC(C)(C)N1n1cc(C(=O)O)c(=O)cc1-2` [Example 95, (R)-11-(methoxymethyl)-3,3-dimethyl-8-oxo-12-(2-(3-oxo-[1,2,4]triazolo[4,3-a]pyridin-2(3H)-yl)ethoxy)-2,3,8,13b-tetrahydro-1H-pyrido[2,1-a]pyrrolo[1,2-c]phthalazine-7-carboxylic acid], the EC50 in data set [1] is 4.6 nM. Besides, the CC50 at 5 days in the data set “MT-4 cytotoxicity assay” (setting [2]) is above 10000 nM.
Regarding `COCCCOc1cc2c(cc1OC(C)(C)C)-c1cc(=O)c(C(=O)O)cn1N1[C@H]2CCC1(C)C` [Example 26, (S)-11-(tert-butoxy)-12-(3-methoxypropoxy)-3,3-dimethyl-8-oxo-2,3,8,13b-tetrahydro-1H-pyrido[2,1-a]pyrrolo[1,2-c]phthalazine-7-carboxylic acid], in data set [1], the EC50 was above 1000 nM. Further, in the data set “MT-4 cytotoxicity assay” (setting [2]), the CC50 at 5 days is above 10000 nM.
In the case of `COCCCOc1cc2c(cc1COC)-c1cc(=O)c(C(=O)O)cn1N1[C@@H]2COCC1(C)C` [Example 102, (S)-12-(methoxymethyl)-13-(3-methoxypropoxy)-4,4-dimethyl-9-oxo-3,4,9,14b-tetrahydro-1H-[1,4]oxazino[3,4-a]pyrido[1,2-c]phthalazine-8-carboxylic acid], the EC50 in data set [1] was 11.5 nM. Besides, in the data set “MT-4 cytotoxicity assay” (setting [2]), the half-maximal cytotoxic concentration (CC50) at 5 days is above 10000 nM.
Taken in the same sequence, the figures for `COCc1cc2c(cc1OCCCOC1COC1)[C@H]1CCC(C)(C)N1n1cc(C(=O)O)c(=O)cc1-2` [Example 94, (R)-11-(methoxymethyl)-3,3-dimethyl-12-(3-(oxetan-3-yloxy)propoxy)-8-oxo-2,3,8,13b-tetrahydro-1H-pyrido[2,1-a]pyrrolo[1,2-c]phthalazine-7-carboxylic acid] were 6 nM and above 10000 nM.
Taken in the same sequence, the figures for `CCOCCCOc1cc2c(cc1OC)-c1cc(=O)c(C(=O)O)cn1N1[C@@H]2CCC1(C)C` [Example 62, (R)-12-(3-ethoxypropoxy)-11-methoxy-3,3-dimethyl-8-oxo-2,3,8,13b-tetrahydro-1H-pyrido[2,1-a]pyrrolo[1,2-c]phthalazine-7-carboxylic acid] were 0.67 nM and above 10000 nM.
Consider `COCCCOc1cc2c(cc1OC)-c1cc(=O)c(C(=O)O)cn1N1[C@@H]2CCCC1(C)C` (single isomer, unassigned) [Example 52], for which the EC50 in data set [1] came out at 0.91 nM. Also, the CC50 at 5 days in the data set “MT-4 cytotoxicity assay” (setting [2]) was above 10000 nM.
For `CC1(C)CC[C@@H]2c3cc(OCCn4nc5ccccn5c4=O)c(OC(F)(F)F)cc3-c3cc(=O)c(C(=O)O)cn3N21` [Example 91, (R)-3,3-dimethyl-8-oxo-12-(2-(3-oxo-[1,2,4]triazolo[4,3-a]pyridin-2(3H)-yl)ethoxy)-11-(trifluoromethoxy)-2,3,8,13b-tetrahydro-H-pyrido[2,1-a]pyrrolo[1,2-c]phthalazine-7-carboxylic acid], the concentration for a half-maximal effect (EC50) in data set [1] came out at 3 nM. Further, the CC50 at 5 days in “MT-4 cytotoxicity assay” (setting [2]) is above 10000 nM.
Taken in the same sequence, the figures for `COCCOCc1cc2c(cc1OC)-c1cc(=O)c(C(=O)O)cn1N1[C@@H]2CCC1(C)C` [Example 78, (R)-11-methoxy-12-((2-methoxyethoxy)methyl)-3,3-dimethyl-8-oxo-2,3,8,13b-tetrahydro-1H-pyrido[2,1-a]pyrrolo[1,2-c]phthalazine-7-carboxylic acid] were 70 nM and above 10000 nM.
For the compound `COc1cc2c(cc1C#Cc1cncn1C)[C@H]1CCC(C)(C)N1n1cc(C(=O)O)c(=O)cc1-2` [Example 42, (R)-11-methoxy-3,3-dimethyl-12-((1-methyl-1H-imidazol-5-yl)ethynyl)-8-oxo-2,3,8,13btetrahydro-1H-pyrido[2,1-a]pyrrolo[1,2-c]phthalazine-7-carboxylic acid], the EC50 in data set [1] stood at 4.8 nM. In addition, the CC50 at 5 days in the data set “MT-4 cytotoxicity assay” (setting [2]) is above 10000 nM.
As to `COCc1cc2c(cc1OCCCO)[C@H]1CCC(C)(C)N1n1cc(C(=O)O)c(=O)cc1-2` [Compound 111, (R)-12-(3-hydroxypropoxy)-11-(methoxymethyl)-3,3-dimethyl-8-oxo-2,3,8,13b-tetrahydro-1H-pyrido[2,1-a]pyrrolo[1,2-c]phthalazine-7-carboxylic acid], in data set [1], the EC50 was 32.2 nM. Besides, in the data set “MT-4 cytotoxicity assay” (setting [2]), the CC50 at 5 days was above 10000 nM.
In the case of `COCCCOc1cc2c(cc1Cl)-c1cc(=O)c(C(=O)O)cn1N1[C@@H]2COCC1(C)C` (single isomer, unassigned) [Example 51], the concentration for a half-maximal effect (EC50) in data set [1] is 2.9 nM. In the data set “MT-4 cytotoxicity assay” (setting [2]), the CC50 at 5 days is above 10000 nM.
Take `CC1(C)CC[C@@H]2c3cc(OCC4COC4)c(C4CC4)cc3-c3cc(=O)c(C(=O)O)cn3N21` [Example 66, (R)-11-cyclopropyl-3,3-dimethyl-12-(oxetan-3-ylmethoxy)-8-oxo-2,3,8,13b-tetrahydro-1H-pyrido[2,1-a]pyrrolo[1,2-c]phthalazine-7-carboxylic acid]: in data set [1], the EC50 amounted to 0.97 nM. For the same compound, the CC50 at 5 days in the data set “MT-4 cytotoxicity assay” (setting [2]) is above 10000 nM.
